Values of other authors as cited in patent publication US6027728A, “Herbal skin regeneration composition and method” (priority 1998, dated 2000).

Tested on: Na+,K(+)-ATPase
Conditions: not given

SMILES	inhibition of Na+,K(+)-ATPase activity (in words)
C[C@]12C[C@@H](O)[C@@H]3C[C@@]1(O[C@@H]1O[C@H](CO)[C@@H](O)[C@H](O)[C@H]1O)[C@@]3(COC(=O)c1ccccc1)C(=O)O2 [albiflorin]	ineffective
O=C(O)c1ccccc1 [benzoic acid]	weakly inhibitory
Oc1cc(O)c2c(c1)OC(c1ccc(O)c(O)c1)C(O)C2 (stereo not drawn) [catechin]	weakly inhibitory
C[C@@]12C[C@@]3(O)O[C@@H](O1)[C@]1(COC(=O)c4ccccc4)[C@H]3C[C@@]12O[C@@H]1O[C@H](COC(=O)c2cc(O)c(O)c(O)c2)[C@@H](O)[C@H](O)[C@H]1O [galloylpaeoniflorin]	weakly inhibitory
C[C@@]12C[C@@]3(O)O[C@@H](O1)[C@]1(COC(=O)c4ccc(O)cc4)[C@H]3C[C@@]12O[C@@H]1O[C@H](CO)[C@@H](O)[C@H](O)[C@H]1O [oxypaeoniflorin]	ineffective
COc1ccc(C(C)=O)c(O)c1 [paconol]	ineffective
C[C@@]12C[C@@]3(O)O[C@@H](O1)[C@]1(COC(=O)c4ccccc4)[C@H]3C[C@@]12O[C@@H]1O[C@H](CO)[C@@H](O)[C@H](O)[C@H]1O [paeoniflorin]	ineffective
Oc1ccccc1 [phenol]	ineffective

Same assay, conditions: with respect to ATP

SMILES	inhibition mode with respect to ATP
O=C(OC[C@H]1O[C@@H](OC(=O)c2cc(O)c(O)c(O)c2)[C@H](OC(=O)c2cc(O)c(O)c(O)c2)[C@@H](OC(=O)c2cc(O)c(O)c(O)c2)[C@@H]1OC(=O)c1cc(O)c(O)c(O)c1)c1cc(O)c(O)c(O)c1 [PGG, 1,2,3,4,6-Penta-O-galloyl-beta-D-glucose]	noncompetitive
